From patent US20260242359A1, “IRHOM2 INHIBITORS AND USES THEREOF” (NEW YORK SOCIETY FOR THE RELIEF OF THE RUPTURED AND …, priority 2023, published 2026) come the findings set out here.

The subject of this test is PMA-induced release of endogenous TGFα from human PC3 prostate cancer cells. The test is described as follows: Example 17: ELISA-based TGFα release assay, PMA-induced, PC3 prostate cancer cells. Type of test: cell-based. Conditions: 10 μM final concentration, PMA 25 ng/ml, delta Buffer stimulated vs unstimulated = 100% inhibition; for inhibition at 10 µM: Homo sapiens. On the procedure: In the following study, ELISA-based TGFα release assays were performed to analyze the inhibitory effects of Compounds 1, 2, 3, 4, 5, and 7 on PMA-induced release of endogenous TGFα, from human PC3 prostate cancer cells. The ELISA-based TGFα release assay that was used in this example is described below.
In brief, on day 1, Nunc black MaxiSorp® 96-well plates (Thermo Fisher Scientific, USA) were coated overnight with 100 μl per well of goat anti-human TGFα capture antibody (provided as part of the DuoSet ELISA kit) at 0.4 μg/ml TBS at 4° C.
75,000 PC3 (European Collection of Authenticated Cell Cultures, UK) cells in 100 μl of normal growth medium were seeded in each well of F-bottom 96-well cell culture plates (Corning, USA) and incubated at 37° C., 5% CO2 overnight. On day 2, the capture antibody solution was removed and MaxiSorp® plates were blocked with 300 μl per well of TBS, 1% BSA at room temperature for 5 hours. Meanwhile, cells were washed twice with PBS and pre-incubated in 80 μl of OptiMEM medium with 20 μl per well of OptiMEM medium supplemented with Batimastat (BB94, Abcam, UK) at 50 μM as positive control (for a final concentration of 10 μM in the resulting 100 μl sample volume), compounds of the invention at 50 μM (for a final concentration of 10 μM in the resulting 100 μl sample volume) and in case of Buffer stimulated and unstimulated controls with DMSO (Carl Roth, Germany) at 50 μM (for a final concentration of 10 μM in the resulting 100 μl sample volume) at 37° C., 5% CO2 for 30 minutes. Subsequently, cells (except those for unstimulated controls) were stimulated with 20 μl per well of PMA (Sigma-Aldrich, USA) at 150 ng/ml in OptiMEM for a final concentration of 25 ng/ml at 37° C., 5% CO2 for 2 hours. In parallel, blocking buffer was removed from the MaxiSorp® plates and plates were washed 4 times with 350 μl TBS-T (Carl Roth, Germany) per well on a 96-head plate washer (Tecan Group, Switzerland). To avoid drying-up, 20 μl TBS were added to each well of the MaxiSorp® plates immediately, followed by the transfer of 80 μl cell-free supernatant per sample. Additionally, 100 μl recombinant human TGFα protein (provided as part of the DuoSet ELISA kit) diluted in TBS at defined concentrations were added to the plate as standard references. Thereafter, 100 μl biotinylated goat anti-human TGFα detection antibody (provided as part of the DuoSet ELISA kit) at 37.5 ng/ml in TBS were added per well and, protected from direct light, plates were incubated at room temperature for 2 hours. After 4 times washing with 350 μl TBS-T (Carl Roth, Germany) per well on a 96-head plate washer (Tecan Group, Switzerland) and careful removal of all buffer traces after the fourth cycle, 100 μl streptavidin-AP (R&D Systems, USA) diluted 1:10,000 in TBS were added to each well and, again protected from direct light, plates were incubated at room temperature for 30 minutes. Following another round of 4 times washing with 350 μl TBS-T (Carl Roth, Germany) per well on a 96-head plate washer (Tecan Group, Switzerland) and careful removal of all buffer traces after the fourth cycle, 100 μl AttoPhos substrate solution (Promega, USA) per well was added for incubation in the dark at room temperature for 1 hour. Using an infinite M1000 (Tecan Group, Switzerland) microplate reader, the fluorescence of each well was collected at an excitation wavelength of 435 nm and an emission wavelength of 555 nm.
The delta between Buffer stimulated and Buffer unstimulated was defined 100% inhibition.
In general terms: In an ELISA, binding on a coated surface is turned into a signal by an enzyme label.

Consider `CNC(=O)[C@H](Cc1ccccc1)NC(=O)[C@H](CC(C)C)[C@H](CSc1cccs1)C(=O)NO` [Batimastat, reference compound], for which the “inhibition of PMA-induced release of TGFα from PC3 cells” value (2 hours) is given as 102.5%. Where the note is “PC-3, 2 h”, the inhibition at 10 µM came out at 104%.
Take `CCC(=O)NCCc1c(/C=C2/C(=O)NC(=O)N(c3ccc(C)cc3C)C2=O)[nH]c2ccccc12` [Compound 1]: the inhibition at 10 µM (PC-3, 2 hours) is 25.5%.
With `CCOC(=O)c1ccc(Nc2nc3nonc3n3nnnc23)cc1` [Compound 2], the inhibition at 10 µM (PC-3, 2 h) came to 9.1%.
Consider `O=C(c1c(Cl)cccc1Cl)N1CCC(Cc2ccc(F)cc2)CC1` [Compound 3], for which the inhibition at 10 µM (PC-3, 2 h) was found to be 12.5%.
As to `Cc1c(C(=O)NCc2cccs2)sc(=O)n1Cc1ccccc1` [Compound 4], the inhibition at 10 µM (PC-3, 2 h) stood at 14.1%.
Turning to `Cc1c(C(=O)NCc2cccs2)sc(=O)n1Cc1ccccc1F` [Compound 5], the inhibition at 10 µM (PC-3, 2 h) was 11.3%.
On the same count and under the same terms, the figure for `Cc1c(C(=O)NCc2ccco2)sc(=O)n1Cc1ccccc1F` [Compound 7] is 27.3%.

In general, inhibition refers to the change of the read-out against control, counted positive when it falls.
